Source: patent US20150352108A1, “AMINO-PYRIMIDINE COMPOUNDS AS INHIBITORS OF TBK1 AND/OR IKK EPSILON” (Alzheimer's Institute of America, priority 2009, published 2015)
Where two headings read alike, the source gives them in different places.

Columns and labels:
TBK1 = molecular target: T1, TBK1 (Homo sapiens, UniProt Q9UHD2); assay: In-vitro TBK1 kinase assay ([γ33]ATP filter-plate); format: biochemical
T1 construct: His-tag; made in house; host or cells: Sf9 insect cells
T1 sequence (Q9UHD2 1-729): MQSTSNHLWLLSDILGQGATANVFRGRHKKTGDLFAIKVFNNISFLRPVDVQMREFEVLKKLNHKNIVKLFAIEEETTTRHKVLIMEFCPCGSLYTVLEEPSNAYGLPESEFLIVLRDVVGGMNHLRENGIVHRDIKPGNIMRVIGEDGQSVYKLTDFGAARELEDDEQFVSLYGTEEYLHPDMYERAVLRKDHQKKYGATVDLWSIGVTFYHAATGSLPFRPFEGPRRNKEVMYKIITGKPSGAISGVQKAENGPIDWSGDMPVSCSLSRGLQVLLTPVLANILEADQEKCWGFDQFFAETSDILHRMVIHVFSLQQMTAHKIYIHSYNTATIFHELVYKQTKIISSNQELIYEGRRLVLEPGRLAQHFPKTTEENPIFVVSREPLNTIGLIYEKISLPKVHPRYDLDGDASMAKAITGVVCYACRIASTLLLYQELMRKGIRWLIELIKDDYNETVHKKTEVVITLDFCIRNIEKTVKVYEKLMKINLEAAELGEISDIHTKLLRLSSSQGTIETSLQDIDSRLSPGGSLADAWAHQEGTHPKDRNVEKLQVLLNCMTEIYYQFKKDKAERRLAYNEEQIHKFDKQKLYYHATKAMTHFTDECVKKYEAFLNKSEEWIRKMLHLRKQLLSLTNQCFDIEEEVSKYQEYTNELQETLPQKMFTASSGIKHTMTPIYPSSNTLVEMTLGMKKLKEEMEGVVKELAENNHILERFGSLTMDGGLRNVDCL
How it was run: (§1)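 Phosphorylation of casein or myelin basic protein was counted by P-81 filter capture after 30-45 min reactions stopped with phosphoric acid, with counts normalized to DMSO after background subtraction. ATP was twice Km: 60 μM for TBK1 and 32 μM for IKKε, plus [γ33]ATP. Sf9-expressed His-tag enzymes were used at normal/sensitized levels of 0.1/0.02 μg/ml (TBK1) and 0.1/0.015 μg/ml (IKKε).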

[1] = system: IKKε-mediated phosphorylation of IRF3; assay: In-situ phosphorylation of IRF3 (pIRF3 Ser396 ELISA) in HEK293T cells cotransfected with IRF3 and IKKε; format: cell-based; conditions: Homo sapiens, HEK-293T
How it was run: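 For the IRF3 ELISA, HEK293T cells cotransfected with IRF3 and IKKε were replated at 20,000/well and treated 20 h. Phospho-Ser396 IRF3 was measured by ELISA and normalised to DMSO, with viability checked by CellTiter-Glo. For IRF7, cells transfected with IRF7 and TBK1 were treated overnight, and pSer477/Ser479 IRF7 was detected by Western blot.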

IKKε = molecular target: T2, IKKε (Homo sapiens, UniProt Q14164); assay: In-vitro IKKε kinase assay ([γ33]ATP filter-plate); format: biochemical
T2 construct: His-tag; made in house; host or cells: Sf9 insect cells
T2 sequence (Q14164 1-716): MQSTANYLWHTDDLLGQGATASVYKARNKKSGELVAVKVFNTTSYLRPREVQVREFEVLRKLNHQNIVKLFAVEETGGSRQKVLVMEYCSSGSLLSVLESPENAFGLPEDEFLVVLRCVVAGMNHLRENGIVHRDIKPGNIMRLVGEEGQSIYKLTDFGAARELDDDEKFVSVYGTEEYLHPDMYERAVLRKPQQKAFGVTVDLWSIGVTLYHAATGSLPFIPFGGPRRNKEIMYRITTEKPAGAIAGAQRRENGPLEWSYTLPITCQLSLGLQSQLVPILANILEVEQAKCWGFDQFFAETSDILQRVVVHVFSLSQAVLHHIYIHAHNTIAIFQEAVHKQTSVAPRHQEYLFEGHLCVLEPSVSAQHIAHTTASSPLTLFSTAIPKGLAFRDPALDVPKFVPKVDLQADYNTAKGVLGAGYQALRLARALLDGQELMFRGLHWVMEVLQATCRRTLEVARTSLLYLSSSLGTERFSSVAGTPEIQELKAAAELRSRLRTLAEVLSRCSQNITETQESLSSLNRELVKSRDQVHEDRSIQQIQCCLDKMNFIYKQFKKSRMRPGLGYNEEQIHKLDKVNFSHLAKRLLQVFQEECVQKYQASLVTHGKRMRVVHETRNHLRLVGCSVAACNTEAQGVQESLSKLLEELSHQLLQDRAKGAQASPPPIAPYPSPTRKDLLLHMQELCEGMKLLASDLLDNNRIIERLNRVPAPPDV
How it was run: as §1

[2] = text bins, read-out: IC50 for inhibition of the kinase activity of TBK1
[3] = HEK293T cells, 20 hours, text bins, read-out: IC50 for inhibition of the in-situ IKKε-mediated phosphorylation of IRF3
[4] = text bins, read-out: IC50 for inhibition of the kinase activity of IKKε
[5] = HEK293T cells in culture, Table 3, read-out: pIRF3 ELISA IC50

Row | SMILES | IC50 (TBK1; [2]) | IC50 [1, 3] | IC50 (IKKε; [4]) | IC50 (TBK1; Table 3, read-out: TBK1 IC50) | IC50 [1, 5] | IC50 (IKKε; Table 3, read-out: IKKε IC50)
1 | N#Cc1cc(-c2ccnc(Nc3ccc(F)c(OCCN)c3)n2)ccc1OC1CCOCC1 [compound 640, 5-(2-{[3-(2-Aminoethoxy)-4-fluorophenyl]amino}pyrimidin-4-yl)-2-(tetrahydro-2H-pyran-4-yloxy)benzonitrile] | < 10 nM | 100 to 250 nM | < 5 nM |  |  | 
2 | COc1cc(Nc2nccc(-c3ccc(OC4CCOCC4)c(C#N)c3)n2)ccc1C(=O)N1CC(OC)C1 [compound 484, 5-[2-({3-Methoxy-4-[(3-methoxyazetidin-1-yl)carbonyl]phenyl}amino)pyrimidin-4-yl]-2-(tetrahydro-2H-pyran-4-yloxy)benzonitrile] | 10 to 100 nM | < 100 nM | < 5 nM |  |  | 
3 | N#Cc1cc(-c2ccnc(Nc3ccc(CN4CCOCC4)cc3)n2)ccc1OC1CCOCC1 [compound 510, 5-(2-{[4-(morpholin-4-ylmethyl)phenyl]amino}pyrimidin-4-yl)-2-(tetrahydro-2H-pyran-4-yloxy)benzonitrile] | < 10 nM | < 100 nM | < 5 nM |  |  | 
4 | N#Cc1cc(-c2ccnc(Nc3ccc(N4CCN(CCO)CC4)cc3)n2)ccc1OCC1CC1 [compound 439, 2-(Cyclopropylmethoxy)-5-[2-({4-[4-(2-hydroxyethyl)piperazin-1-yl]phenyl}amino)pyrimidin-4-yl]benzonitrile] | < 10 nM | < 100 nM | < 5 nM | 0.3 nM | 8 nM | 0.4 nM
5 | COCCNCc1ccc(Nc2nccc(-c3ccc(OCC(C)C)c(C#N)c3)n2)cc1 [compound 651] | < 10 nM | < 100 nM | < 5 nM |  |  | 
6 | N#Cc1cc(-c2ccnc(Nc3ccc(N4CCOCC4)cc3)n2)ccc1NCc1ccccn1 [Example 64, 5-(2-{[4-(Morpholin-4-yl)phenyl]amino}pyrimidin-4-yl)-2-[(pyridin-2-ylmethyl)amino] benzonitrile] | < 10 nM | 250 to 500 nM | 5 to 50 nM |  |  | 
7 | COc1cc(Nc2nccc(-c3ccc(OC4CCOCC4)c(C#N)c3)n2)ccc1OCCOCCN [Example 21, 5-[2-({4-[2-(2-aminoethoxy)ethoxy]-3-methoxyphenyl}amino)pyrimidin-4-yl]-2-(tetrahydro-2H-pyran-4-yloxy)benzonitrile] | < 10 nM | < 100 nM | < 5 nM |  |  | 
8 | CCN(CC)CCOCCOc1cc(Nc2nccc(-c3ccc(OC4CCOCC4)c(C#N)c3)n2)ccc1OC [compound 531, 5-{2-[(3-{2-[2-(diethylamino)ethoxy]ethoxy}-4-methoxyphenyl)amino]pyrimidin-4-yl}-2-(tetrahydro-2H-pyran-4-yloxy)benzonitrile] | < 10 nM | < 100 nM | < 5 nM |  |  | 
9 | CN(C)CCNS(=O)(=O)c1ccc(Nc2nccc(-c3ccc(OC4CCOCC4)c(C#N)c3)n2)cc1 [compound 334, 4-({4-[3-cyano-4-(tetrahydro-2H-pyran-4-yloxy)phenyl]pyrimidin-2-yl}amino)-N-[2-(dimethylamino)ethyl] benzenesulfonamide] | < 10 nM | 100 to 250 nM | < 5 nM |  |  | 
10 | COCCNC(=O)Nc1cccc(Nc2nccc(-c3ccc(OC4CCOCC4)c(C#N)c3)n2)c1 [compound 543, 1-[3-({4-[3-Cyano-4-(tetrahydro-2H-pyran-4-yloxy)phenyl]pyrimidin-2-yl}amino)phenyl]-3-(2-methoxyethyl)urea] | < 10 nM | < 100 nM | < 5 nM | 1.3 nM | 50.3 nM | 1.1 nM
11 | COc1cc(Nc2nccc(-c3ccc(NC(=O)C(C)C)c(C#N)c3)n2)ccc1N1CCOCC1 [Example 75, N-[2-cyano-4-(2-{[3-methoxy-4-(morpholin-4-yl)phenyl]amino}pyrimidin-4-yl)phenyl]-2-methylpropanamide] | < 10 nM | 250 to 500 nM | < 5 nM |  |  | 
12 | COc1cc(Nc2nccc(-c3ccc(OC4CCOCC4)c(C#N)c3)n2)ccc1C(=O)NCCC1CCCN1C (stereo not drawn) [compound 307, 4-({4-[3-cyano-4-(tetrahydro-2H-pyran-4-yloxy)phenyl]pyrimidin-2-yl}amino)-2-methoxy-N-[2-(1-methylpyrrolidin-2-yl)ethyl]benzamide] | < 10 nM | 100 to 250 nM | < 5 nM |  |  | 
13 | N#Cc1cc(-c2ccnc(Nc3cccc(OCCCN4CCOCC4)c3)n2)ccc1OC1CCOCC1 [compound 528, 5-[2-({3-[3-(morpholin-4-yl)propoxy]phenyl}amino)pyrimidin-4-yl]-2-(tetrahydro-2H-pyran-4-yloxy)benzonitrile] | < 10 nM | 250 to 500 nM | 5 to 50 nM |  |  | 
14 | COc1cc(Nc2nccc(-c3ccc(OC4CCOCC4)c(C#N)c3)n2)ccc1C(=O)N(C)C1CCN(C)C1 (stereo not drawn) [compound 385, 4-({4-[3-cyano-4-(tetrahydro-2H-pyran-4-yloxy)phenyl]pyrimidin-2-yl}amino)-2-methoxy-N-methyl-N-(1-methylpyrrolidin-3-yl)benzamide] | < 10 nM | < 100 nM | < 5 nM |  |  | 
15 | CC(C)N1CCN(CCOc2cc(Nc3nccc(-c4ccc(OCC5CC5)c(C#N)c4)n3)ccc2F)CC1 [compound 574, 2-(Cyclopropylmethoxy)-5-{2-[(4-fluoro-3-{2-[4-(propan-2-yl)piperazin-1-yl]ethoxy}phenyl)amino]pyrimidin-4-yl}benzonitrile] | < 10 nM | 100 to 250 nM | < 5 nM |  |  | 
16 | CCN(CC)CCOc1cc(Nc2nccc(-c3ccc(OC4CCOCC4)c(C#N)c3)n2)ccc1C [compound 618, 5-[2-({3-[2-(Diethylamino)ethoxy]-4-methylphenyl}amino)pyrimidin-4-yl]-2-(tetrahydro-2H-pyran-4-yloxy)benzonitrile] | < 10 nM | < 100 nM | < 5 nM |  |  | 
17 | N#Cc1cc(-c2ccnc(Nc3ccc(CN4CCN(CCO)CC4)cc3)n2)ccc1OC1CCOCC1 [compound 511, 5-{2-[(4-{[4-(2-hydroxyethyl)piperazin-1-yl]methyl}phenyl)amino]pyrimidin-4-yl}-2-(tetrahydro-2H-pyran-4-yloxy)benzonitrile] | < 10 nM | 100 to 250 nM | < 5 nM |  |  | 
18 | N#Cc1cc(-c2ccnc(Nc3ccc(CS(=O)(=O)N4CCOCC4)cc3)n2)ccc1OC1CCOCC1 [compound 404, 5-[2-({4-[(Morpholin-4-ylsulfonyl)methyl]phenyl}amino)pyrimidin-4-yl]-2-(tetrahydro-2H-pyran-4-yloxy)benzonitrile] | < 10 nM | < 100 nM | < 5 nM |  |  | 
19 | COc1cc(-c2ccnc(Nc3ccc(N4CCOCC4)cc3)n2)cc(C#N)c1OC1CCNCC1 [compound 440, 3-Methoxy-5-(2-{[4-(morpholin-4-yl)phenyl]amino}pyrimidin-4-yl)-2-(piperidin-4-yloxy)benzonitrile] | < 10 nM | < 100 nM | < 5 nM |  |  | 
